Data: article PMC9296036, “A peptide interfering with the dimerization of oncogenic KITENIN protein and its stability suppresses colorectal tumour progression” (Clinical and Translational Medicine, 2022)
Ends that are not written are not given here.

Test system: CT-26/iRFP/KITENIN-V5 liver metastases
Test: Intrasplenic hepatic metastasis model, CT-26/iRFP/KITENIN-V5 cells in syngeneic mice
Type: in vivo, mouse
Method: For hepatic metastasis analysis, 5‐ to 6‐week‐old Balb/c mice were obtained from OrientBio, Inc. (Seongnam, Korea) and housed in metal cages with free access to water and food. A syngeneic mouse model of colorectal liver metastasis was established by an infusion of tumour cells into the portal system via intrasplenic injection.[27] In brief, CT‐26/KITENIN‐iRFP‐expressing cells (2 × 10^5 cells/mouse) were injected into the spleen. Splenectomy was performed 15 min after an injection of CT‐26 cells. Mice were randomly assigned to two groups: scrambled peptide and KDIP (1, 5 mg/kg). Each peptide was given via intravenous injection six times for 2 weeks after 7 days of inoculation of tumour cells. Metastatic tumour nodules in the liver with a diameter of >1.0 mm were counted using a microscope, and a metastasis score was allocated based on nodule size as follows: 0 (no gross metastasis), 1 (tumour size >1 mm), 2 (tumour size 1 >5 mm) and 3 (tumour size >10 mm). The metastasis score was obtained by multiplying the number and the score of nodules. Fluorescence images of liver nodules expressing iRFP were taken using a Fluorescence‐labelled Organism Bioimaging Instrument (Cellgentek, Korea) and total fluorescence emitted from liver nodules was measured and compared between groups.
Effect of KAI1 C‐terminal interacting tetraspanin (KITENIN) dimerization‐interfering peptide (KDIP) on tumour growth and metastasis in in vivo mouse model of colorectal cancer (CRC). (A) Treatment with KDIP decreases cell invasion of KITENIN‐overexpressing CT‐26 cells. Cell invasion assay was performed in CT‐26 cells transfected with KITENIN and treated with scr‐peptide or KDIP (1 μM) (upper panel). […] For the evaluation of metastasis, total fluorescence emitted from liver nodules expressing iRFP was measured and counted (left panel) or metastatic tumour growth was counted as nodules that migrated to the surface of the liver, and a metastatic score was obtained by multiplying it with size (middle panel). Metastatic score or total fluorescence is represented as mean ± SEM. […]

[1] = KDIP 5 mg/kg versus scrambled peptide, immunoblot densitometry, n = 6

## YARVRRRGPRRWRLVSDEAV [KDIP]
KDIP 5 mg/kg intravenously for 2 weeks, compared with scramble peptide group
  fluorescence of the hepatic nodule (liver metastasis, in words): significantly reduced
[1]
  KITENIN level in metastatic liver nodules (in words): significantly decreased
  protein level of Myo10 in metastatic liver nodules (in words): significantly decreased
